Laboratory results reported in PubChem BioAssay AID1963842 (Molecular Pharmacology Branch, DTP, NCI, 2024).

System: 677734-321-R-J1-PDC complex spheroid viability
Test: Anticancer human tumor 677734-321-R-J1-PDC patient-derived soft tissue sarcoma cell line growth inhibition [POLQ]
Details: for IC50: curve of first compound; for viability, T/C: stronger effect = lower value
Procedure, shortened: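 Three-cell-type spheroids modelling solid tumor plus stroma served as the readout system; POL inhibitors were tested individually and in combination, concentration ranges set by clinical Cmax where known.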

[1] = second compound 0.0316 µM, first compound 0.0316 µM
[2] = second compound 0.0316 µM, first compound 0.1 µM
[3] = second compound 0.0316 µM, first compound 0.316 µM
[4] = second compound 0.0316 µM, first compound 1 µM
[5] = second compound 0.0316 µM, first compound 3.16 µM
[6] = second compound 0.0316 µM, first compound 10 µM
[7] = second compound 0.1 µM, first compound 0.0316 µM
[8] = second compound 0.1 µM, first compound 0.1 µM
[9] = second compound 0.1 µM, first compound 0.316 µM
[10] = second compound 0.1 µM, first compound 1 µM
[11] = second compound 0.1 µM, first compound 3.16 µM
[12] = second compound 0.1 µM, first compound 10 µM
[13] = second compound 0.316 µM, first compound 0.0316 µM
[14] = second compound 0.316 µM, first compound 0.1 µM
[15] = second compound 0.316 µM, first compound 0.316 µM
[16] = second compound 0.316 µM, first compound 1 µM
[17] = second compound 0.316 µM, first compound 3.16 µM
[18] = second compound 0.316 µM, first compound 10 µM
[19] = second compound 1 µM, first compound 0.0316 µM
[20] = second compound 1 µM, first compound 0.1 µM
[21] = second compound 1 µM, first compound 0.316 µM
[22] = second compound 1 µM, first compound 1 µM
[23] = second compound 1 µM, first compound 3.16 µM
[24] = second compound 1 µM, first compound 10 µM
[25] = second compound 3.16 µM, first compound 0.0316 µM
[26] = second compound 3.16 µM, first compound 0.1 µM
[27] = second compound 3.16 µM, first compound 0.316 µM
[28] = second compound 3.16 µM, first compound 1 µM
[29] = second compound 3.16 µM, first compound 3.16 µM
[30] = second compound 3.16 µM, first compound 10 µM
[31] = second compound 10 µM, first compound 0.0316 µM
[32] = second compound 10 µM, first compound 0.1 µM
[33] = second compound 10 µM, first compound 0.316 µM
[34] = second compound 10 µM, first compound 1 µM
[35] = second compound 10 µM, first compound 3.16 µM
[36] = second compound 10 µM, first compound 10 µM
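Also: spheroids exposed to compounds for one week.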
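For viability, T/C in this document: 100% = vehicle DMSO treated spheroids.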

Q: With CCc1cc2c(N3CCc4c(cc(Cn5ccnc5)cc4-c4cn(C)nc4C(F)(F)F)C3=O)cc(C)nc2c(OC)n1 + Nc1ccc(C#CCN(C(=O)Cc2ncc(C(F)(F)F)cc2C(F)(F)F)c2ccc(F)cc2)nn1 as the compound, how does the IC50 (second compound 0.0316 µM) read?
A: > 10 µM

Q: And the IC50 (second compound 0.1 µM)?
A: 6.09 µM

Q: What about the IC50 (second compound 0.316 µM) of the same compound?
A: 7.57 µM

Q: What about the IC50 (second compound 1 µM) of the same compound?
A: 5.9 µM

Q: And the IC50 (second compound 3.16 µM)?
A: 5.71 µM

Q: And the IC50 (second compound 10 µM)?
A: 4.5 µM

Q: What about the viability, T/C [1] of the same compound?
A: 100%

Q: What about the viability, T/C [2] of the same compound?
A: 101%

Q: And the viability, T/C [3]?
A: 85%

Q: What about the viability, T/C [4] of the same compound?
A: 76.3%

Q: And the viability, T/C [5]?
A: 63.8%

Q: What about the viability, T/C [6] of the same compound?
A: 61.8%

Q: And the viability, T/C [7]?
A: 102%

Q: And the viability, T/C [8]?
A: 94.2%

Q: And the viability, T/C [9]?
A: 77.6%

Q: What about the viability, T/C [10] of the same compound?
A: 78.5%

Q: And the viability, T/C [11]?
A: 53.4%

Q: What about the viability, T/C [12] of the same compound?
A: 45.1%

Q: And the viability, T/C [13]?
A: 104%

Q: What about the viability, T/C [14] of the same compound?
A: 93.6%

Q: And the viability, T/C [15]?
A: 96.4%

Q: What about the viability, T/C [16] of the same compound?
A: 91.2%

Q: And the viability, T/C [17]?
A: 73.2%

Q: What about the viability, T/C [18] of the same compound?
A: 42.1%

Q: What about the viability, T/C [19] of the same compound?
A: 116%

Q: What about the viability, T/C [20] of the same compound?
A: 88%

Q: What about the viability, T/C [21] of the same compound?
A: 100%

Q: What about the viability, T/C [22] of the same compound?
A: 90.1%

Q: And the viability, T/C [23]?
A: 60%

Q: And the viability, T/C [24]?
A: 39.1%

Q: And the viability, T/C [25]?
A: 107%

Q: And the viability, T/C [26]?
A: 97.3%

Q: What about the viability, T/C [27] of the same compound?
A: 96.6%

Q: And the viability, T/C [28]?
A: 95.2%

Q: And the viability, T/C [29]?
A: 65%

Q: And the viability, T/C [30]?
A: 35.6%

Q: And the viability, T/C [31]?
A: 110%

Q: And the viability, T/C [32]?
A: 88.5%

Q: And the viability, T/C [33]?
A: 91.4%

Q: And the viability, T/C [34]?
A: 86.5%

Q: What about the viability, T/C [35] of the same compound?
A: 55.5%

Q: What about the viability, T/C [36] of the same compound?
A: 29.8%

Q: With COc1cc2cc(C(=O)CCC(=O)O)sc2cc1OC + Nc1ccc(C#CCN(C(=O)Cc2ncc(C(F)(F)F)cc2C(F)(F)F)c2ccc(F)cc2)nn1 as the compound, how does the IC50 (second compound 0.0316 µM) read?
A: > 10 µM

Q: What about the IC50 (second compound 0.1 µM) of the same compound?
A: > 10 µM

Q: What about the IC50 (second compound 0.316 µM) of the same compound?
A: > 10 µM

Q: What about the IC50 (second compound 1 µM) of the same compound?
A: > 10 µM

Q: What about the IC50 (second compound 3.16 µM) of the same compound?
A: > 10 µM

Q: And the IC50 (second compound 10 µM)?
A: > 10 µM

Q: What about the viability, T/C [1] of the same compound?
A: 105%

Q: And the viability, T/C [2]?
A: 105%

Q: And the viability, T/C [3]?
A: 103%

Q: And the viability, T/C [4]?
A: 93.3%

Q: And the viability, T/C [5]?
A: 108%

Q: And the viability, T/C [6]?
A: 104%

Q: What about the viability, T/C [7] of the same compound?
A: 103%

Q: What about the viability, T/C [8] of the same compound?
A: 98.5%

Q: And the viability, T/C [9]?
A: 100%

Q: What about the viability, T/C [10] of the same compound?
A: 98.5%

Q: What about the viability, T/C [11] of the same compound?
A: 115%

Q: And the viability, T/C [12]?
A: 110%

Q: What about the viability, T/C [13] of the same compound?
A: 104%

Q: What about the viability, T/C [14] of the same compound?
A: 102%

Q: And the viability, T/C [15]?
A: 103%

Q: And the viability, T/C [16]?
A: 108%

Q: And the viability, T/C [17]?
A: 105%

Q: And the viability, T/C [18]?
A: 116%

Q: And the viability, T/C [19]?
A: 105%

Q: What about the viability, T/C [20] of the same compound?
A: 91.4%

Q: And the viability, T/C [21]?
A: 105%

Q: What about the viability, T/C [22] of the same compound?
A: 104%

Q: What about the viability, T/C [23] of the same compound?
A: 95.2%

Q: What about the viability, T/C [24] of the same compound?
A: 109%

Q: And the viability, T/C [25]?
A: 97%

Q: What about the viability, T/C [26] of the same compound?
A: 98.1%

Q: And the viability, T/C [27]?
A: 113%

Q: What about the viability, T/C [28] of the same compound?
A: 109%

Q: What about the viability, T/C [29] of the same compound?
A: 109%

Q: What about the viability, T/C [30] of the same compound?
A: 112%

Q: What about the viability, T/C [31] of the same compound?
A: 104%

Q: What about the viability, T/C [32] of the same compound?
A: 110%

Q: And the viability, T/C [33]?
A: 94.6%

Q: And the viability, T/C [34]?
A: 95%

Q: And the viability, T/C [35]?
A: 107%

Q: And the viability, T/C [36]?
A: 86.3%

Q: COc1ccc([C@@H](O)c2cc(-c3ncnc4cc(N5CCOCC5)ccc34)c(F)cc2Cl)nn1 + Nc1ccc(C#CCN(C(=O)Cc2ncc(C(F)(F)F)cc2C(F)(F)F)c2ccc(F)cc2)nn1 was tested. Which IC50 (second compound 0.0316 µM) did it give?
A: 7.37 µM

Q: What about the IC50 (second compound 0.1 µM) of the same compound?
A: 8.81 µM

Q: What about the IC50 (second compound 0.316 µM) of the same compound?
A: 9.17 µM

Q: And the IC50 (second compound 1 µM)?
A: 7.89 µM

Q: And the IC50 (second compound 3.16 µM)?
A: 6.66 µM

Q: And the IC50 (second compound 10 µM)?
A: > 10 µM

Q: What about the viability, T/C [1] of the same compound?
A: 89.5%

Q: What about the viability, T/C [2] of the same compound?
A: 96.2%

Q: And the viability, T/C [3]?
A: 76.8%

Q: And the viability, T/C [4]?
A: 88.4%

Q: And the viability, T/C [5]?
A: 72.5%

Q: What about the viability, T/C [6] of the same compound?
A: 41.7%

Q: What about the viability, T/C [7] of the same compound?
A: 90.2%

Q: What about the viability, T/C [8] of the same compound?
A: 106%

Q: And the viability, T/C [9]?
A: 96.2%

Q: And the viability, T/C [10]?
A: 90.8%

Q: What about the viability, T/C [11] of the same compound?
A: 67.4%

Q: What about the viability, T/C [12] of the same compound?
A: 47.8%

Q: And the viability, T/C [13]?
A: 105%

Q: What about the viability, T/C [14] of the same compound?
A: 93.1%

Q: What about the viability, T/C [15] of the same compound?
A: 80.9%

Q: What about the viability, T/C [16] of the same compound?
A: 95.4%

Q: What about the viability, T/C [17] of the same compound?
A: 71.5%

Q: And the viability, T/C [18]?
A: 47.6%

Q: What about the viability, T/C [19] of the same compound?
A: 108%

Q: And the viability, T/C [20]?
A: 93.9%

Q: And the viability, T/C [21]?
A: 94%

Q: And the viability, T/C [22]?
A: 90.4%

Q: What about the viability, T/C [23] of the same compound?
A: 73.8%

Q: What about the viability, T/C [24] of the same compound?
A: 43.2%

Q: And the viability, T/C [25]?
A: 103%

Q: What about the viability, T/C [26] of the same compound?
A: 92.6%

Q: And the viability, T/C [27]?
A: 82.8%

Q: What about the viability, T/C [28] of the same compound?
A: 75.5%

Q: And the viability, T/C [29]?
A: 61.1%

Q: What about the viability, T/C [30] of the same compound?
A: 43.4%

Q: And the viability, T/C [31]?
A: 102%

Q: What about the viability, T/C [32] of the same compound?
A: 99.7%

Q: What about the viability, T/C [33] of the same compound?
A: 77.7%

Q: What about the viability, T/C [34] of the same compound?
A: 73.7%

Q: What about the viability, T/C [35] of the same compound?
A: 72.9%

Q: What about the viability, T/C [36] of the same compound?
A: 45.8%

Q: What does the source list for O=C(Nc1ccc(O)c(NS(=O)(=O)c2ccc(F)cc2)c1)c1ccc(-c2ccccc2)cc1 + Nc1ccc(C#CCN(C(=O)Cc2ncc(C(F)(F)F)cc2C(F)(F)F)c2ccc(F)cc2)nn1?
A: IC50 (second compound 0.0316 µM): 4.98 µM; IC50 (second compound 0.1 µM): 4.84 µM; IC50 (second compound 0.316 µM): 3.59 µM; IC50 (second compound 1 µM): 4.08 µM; IC50 (second compound 3.16 µM): 4.07 µM; IC50 (second compound 10 µM): 3.82 µM; viability, T/C [1]: 106%; viability, T/C [2]: 115%; viability, T/C [3]: 97%; viability, T/C [4]: 106%; viability, T/C [5]: 68.7%; viability, T/C [6]: 21.3%; viability, T/C [7]: 106%; viability, T/C [8]: 102%; viability, T/C [9]: 94%; viability, T/C [10]: 102%; viability, T/C [11]: 69.4%; viability, T/C [12]: 17.1%; viability, T/C [13]: 104%; viability, T/C [14]: 113%; viability, T/C [15]: 110%; viability, T/C [16]: 103%; viability, T/C [17]: 53.5%; viability, T/C [18]: 22.1%; viability, T/C [19]: 114%; viability, T/C [20]: 109%; viability, T/C [21]: 104%; viability, T/C [22]: 105%; viability, T/C [23]: 58.6%; viability, T/C [24]: 19.4%; viability, T/C [25]: 119%; viability, T/C [26]: 114%; viability, T/C [27]: 101%; viability, T/C [28]: 111%; viability, T/C [29]: 58.2%; viability, T/C [30]: 19.9%; viability, T/C [31]: 109%; viability, T/C [32]: 115%; viability, T/C [33]: 109%; viability, T/C [34]: 103%; viability, T/C [35]: 56.5%; viability, T/C [36]: 16.5%
